Data reported in PubChem BioAssay AID330 (DTP/NCI, 2004).
“And” between values parts separate entries of the source, which are not always exact repeats. Identical values can stand only once. Toxic doses and inconclusive results are not listed. The calls were made as follows: active = survival T/C of 150% or more; inactive = T/C below 125% in these data. Peptide text beside a SMILES is read from it. * marks the point of attachment. Trt = c1ccc(C(c2ccccc2)(c2ccccc2)*)cc1; Cbz = O=C(OCc1ccccc1)*; Bn = c1ccc(C*)cc1; βAla = NCCC(=O)O

System: P388 leukemia ip, CD2F1 mice, survival T/C
Experiment: NCI In Vivo Anticancer Drug Screen. Data for tumor model P388 Leukemia (intraperitoneal) in CD2F1 (CDF1) mice
Conditions: endpoint: median survival time, higher = longer survival
How it was run: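 Mice carrying the transplanted tumor received test compound or vehicle. Survival was recorded in each group, and the value is the treated-group measurement divided by that of the vehicle-treated control group.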

[1] = dose: 60.0 mg/kg/injection, schedule: Q01DX005 (ip), vehicle: saline with Tween-80
[2] = dose: 120.0 mg/kg/injection, schedule: Q01DX005 (ip), vehicle: saline with Tween-80
[3] = dose: 240.0 mg/kg/injection, schedule: Q01DX005 (ip), vehicle: saline with Tween-80
[4] = dose: 50.0 mg/kg/injection, schedule: Q01DX005 (ip), vehicle: Klucel (hydroxypropylcellulose) (HPC)
[5] = dose: 100.0 mg/kg/injection, schedule: Q01DX005 (ip), vehicle: Klucel (hydroxypropylcellulose) (HPC)
[6] = dose: 200.0 mg/kg/injection, schedule: Q01DX005 (ip), vehicle: Klucel (hydroxypropylcellulose) (HPC)
[7] = dose: 50.0 mg/kg/injection, schedule: Q01DX009 (ip), vehicle: saline
[8] = dose: 50.0 mg/kg/injection, schedule: Q01DX005 (ip), vehicle: saline
[9] = dose: 100.0 mg/kg/injection, schedule: Q01DX001 (ip), vehicle: saline
[10] = dose: 200.0 mg/kg/injection, schedule: Q01DX001 (ip), vehicle: saline
[11] = dose: 25.0 mg/kg/injection, schedule: Q01DX005 (ip), vehicle: saline
[12] = dose: 50.0 mg/kg/injection, schedule: Q01DX009 (ip), vehicle: Klucel (hydroxypropylcellulose) (HPC)
[13] = dose: 25.0 mg/kg/injection, schedule: Q01DX005 (ip), vehicle: Klucel (hydroxypropylcellulose) (HPC)
[14] = dose: 4.0 mg/kg/injection, schedule: Q01DX009 (ip), vehicle: water
[15] = dose: 8.0 mg/kg/injection, schedule: Q01DX009 (ip), vehicle: water
[16] = dose: 16.0 mg/kg/injection, schedule: Q01DX009 (ip), vehicle: water
[17] = dose: 32.0 mg/kg/injection, schedule: Q01DX009 (ip), vehicle: water
[18] = dose: 64.0 mg/kg/injection, schedule: Q01DX009 (ip), vehicle: water

Measured: T/C

CCOC(=O)C1=C(C)Nc2cc[nH]c(=O)c2C1c1ccccc1Cl (stereo unspecified)
inactive: [1] 107 % of control | [2] 103 % of control | [3] 104 % of control

Cc1ccccc1-c1nc2c3ccccc3c3ccccc3c2[nH]1
inactive: [4] 103 % of control | [5] 96 % of control | [6] 100 % of control

CC(=Nc1c[nH]c(=O)[nH]c1=O)c1ccccc1
inactive: dose: 100.0 mg/kg/injection, schedule: Q04DX002 (ip), vehicle: suspension in saline 104 % of control | dose: 200.0 mg/kg/injection, schedule: Q04DX002 (ip), vehicle: suspension in saline 101 % of control | dose: 400.0 mg/kg/injection, schedule: Q04DX002 (ip), vehicle: suspension in saline 94 % of control

C/C=C1\CC2(OC1=O)C(=O)NC(=O)NC2=O
inactive: [7] 103 % of control | dose: 100.0 mg/kg/injection, schedule: Q01DX009 (ip), vehicle: saline 94 % of control

O=C(Nc1c(Cl)cccc1Cl)Oc1c(Br)cc(Br)cc1Br
inactive: dose: 60.0 mg/kg/injection, schedule: Q01DX005 (ip), vehicle: Klucel (hydroxypropylcellulose) (HPC) 108 % of control | dose: 120.0 mg/kg/injection, schedule: Q01DX005 (ip), vehicle: Klucel (hydroxypropylcellulose) (HPC) 101 % of control | dose: 240.0 mg/kg/injection, schedule: Q01DX005 (ip), vehicle: Klucel (hydroxypropylcellulose) (HPC) 102 % of control

CCOc1cc2c(cc1C(C)(C)c1ccc(OC)cc1)OCO2
inactive: [1] 98 % of control | [2] 109 % of control and 113 % of control | [3] 123 % of control

CCOC(=O)C(C(=O)c1ccccc1)C(=O)C(C)(C)C (stereo unspecified)
inactive: dose: 50.0 mg/kg/injection, schedule: Q01DX009 (ip), vehicle: saline with Tween-80 100 % of control | dose: 100.0 mg/kg/injection, schedule: Q01DX009 (ip), vehicle: saline with Tween-80 91 % of control | dose: 200.0 mg/kg/injection, schedule: Q01DX009 (ip), vehicle: saline with Tween-80 95 % of control

O=C(c1ccc(CSc2ccc(Cl)cc2)o1)N1CCOCC1
inactive: dose: 50.0 mg/kg/injection, schedule: Q01DX005 (ip), vehicle: saline with Tween-80 99 % of control | dose: 100.0 mg/kg/injection, schedule: Q01DX005 (ip), vehicle: saline with Tween-80 101 % of control | dose: 200.0 mg/kg/injection, schedule: Q01DX005 (ip), vehicle: saline with Tween-80 91 % of control

C/C(N)=N/OCc1ccccc1
inactive: dose: 50.0 mg/kg/injection, schedule: Q01DX005 (ip), vehicle: Klucel + Tween-80 98 % of control | [8] 92 % of control | dose: 100.0 mg/kg/injection, schedule: Q01DX005 (ip), vehicle: Klucel + Tween-80 102 % of control | dose: 100.0 mg/kg/injection, schedule: Q01DX005 (ip), vehicle: saline 107 % of control | dose: 200.0 mg/kg/injection, schedule: Q01DX005 (ip), vehicle: Klucel + Tween-80 102 % of control | dose: 200.0 mg/kg/injection, schedule: Q01DX005 (ip), vehicle: saline 102 % of control

CCO[C@H]1c2cc3c(cc2[C@@H](c2cc(OC)c(OC)c(OC)c2)[C@H]2C(=O)OC[C@@H]21)OCO3
inactive: [4] 96 % of control | [5] 112 % of control

COCC1(C)CCCC2(C)C3=CC(O)CCC3CCC12 (stereo unspecified)
inactive: [9] 98 % of control | [10] 97 % of control | dose: 400.0 mg/kg/injection, schedule: Q01DX001 (ip), vehicle: saline 98 % of control

CCOC(=O)C=C1CCC2(CC1)SCCS2
inactive: dose: 100.0 mg/kg/injection, schedule: Q01DX001 (ip), vehicle: other 104 % of control | dose: 200.0 mg/kg/injection, schedule: Q01DX001 (ip), vehicle: other 114 % of control | dose: 400.0 mg/kg/injection, schedule: Q01DX001 (ip), vehicle: other 117 % of control

CN(C)C1=NC(NCc2ccccc2)(N(C)C)OC(N(C)C)=N1 (stereo unspecified)
inactive: [11] 107 % of control | [8] 96 % of control

C[As](C)SCC(N)C(=O)O (stereo unspecified)
inactive: dose: 12.5 mg/kg/injection, schedule: Q01DX009 (ip), vehicle: Klucel (hydroxypropylcellulose) (HPC) 107 % of control | dose: 25.0 mg/kg/injection, schedule: Q01DX009 (ip), vehicle: Klucel (hydroxypropylcellulose) (HPC) 106 % of control | [12] 103 % of control and 110 % of control

CN(C)CC(CN(C)C)C(=O)c1ccc(Cl)cc1
inactive: dose: 6.25 mg/kg/injection, schedule: Q01DX005 (ip), vehicle: saline 107 % of control and 95 % of control and 96 % of control | dose: 12.5 mg/kg/injection, schedule: Q01DX005 (ip), vehicle: saline 107 % of control and 115 % of control and 116 % of control | [11] 107 % of control and 118 % of control and 124 % of control | [8] 104 % of control and 113 % of control

COC(=O)c1ccc(OC)c(OC)c1-c1c(C(=O)OC)c(C(=O)OC)c2n1CCc1cc3c(cc1-2)OCO3
inactive: dose: 50.0 mg/kg/injection, schedule: Q04DX002 (ip), vehicle: saline with Tween-80 103 % of control | dose: 100.0 mg/kg/injection, schedule: Q04DX002 (ip), vehicle: saline with Tween-80 100 % of control | dose: 200.0 mg/kg/injection, schedule: Q04DX002 (ip), vehicle: saline with Tween-80 90 % of control

O=C1CN(CO)C(=O)N1CO
inactive: [13] 114 % of control | [4] 116 % of control and 117 % of control | [5] 116 % of control

CC(C)=C(C#N)NC(C)(C)C
inactive: dose: 12.5 mg/kg/injection, schedule: Q01DX009 (ip), vehicle: saline 101 % of control | dose: 25.0 mg/kg/injection, schedule: Q01DX009 (ip), vehicle: saline 100 % of control | [7] 98 % of control and 94 % of control

C#CCCCCCC#CCCCCCC#CC(=O)O
inactive: [9] 104 % of control | [10] 101 % of control

Cn1c(=O)[nH]c2nncnc2c1=O
inactive: dose: 2.0 mg/kg/injection, schedule: Q01DX009 (ip), vehicle: water 101 % of control | [14] 100 % of control | [15] 104 % of control | dose: 12.5 mg/kg/injection, schedule: Q01DX009 (ip), vehicle: water 99 % of control | [16] 101 % of control | dose: 25.0 mg/kg/injection, schedule: Q01DX009 (ip), vehicle: water 117 % of control | [17] 104 % of control | [18] 123 % of control | dose: 375.0 micrograms/kg/injection, schedule: Q01DX009 (ip), vehicle: saline 97 % of control | dose: 750.0 micrograms/kg/injection, schedule: Q01DX009 (ip), vehicle: saline 100 % of control | dose: 1500.0 micrograms/kg/injection, schedule: Q01DX009 (ip), vehicle: saline 91 % of control | dose: 3000.0 micrograms/kg/injection, schedule: Q01DX009 (ip), vehicle: saline 100 % of control

COc1ccc2c(c1)C1(C)c3cc(OC)ccc3OC1(C)O2 (stereo unspecified)
inactive: dose: 50.0 mg/kg/injection, schedule: Q01DX009 (ip), vehicle: other 103 % of control | dose: 100.0 mg/kg/injection, schedule: Q01DX009 (ip), vehicle: other 95 % of control | dose: 200.0 mg/kg/injection, schedule: Q01DX009 (ip), vehicle: other 103 % of control

COC(=O)C(CSC(c1ccccc1)(c1ccccc1)c1ccccc1)NC(=O)C(CSCc1ccccc1)NC(=O)CCNC(=O)OCc1ccccc1 (stereo unspecified) ({Cbz-βAla}-Cys(Bn)-Cys(Trt)-OMe; configuration not given here)
inactive: [14] 102 % of control | [15] 100 % of control | dose: 12.5 mg/kg/injection, schedule: Q01DX005 (ip), vehicle: Klucel (hydroxypropylcellulose) (HPC) 99 % of control | [16] 99 % of control | [13] 102 % of control | [17] 99 % of control | [4] 102 % of control | [18] 89 % of control | [5] 102 % of control | dose: 128.0 mg/kg/injection, schedule: Q01DX009 (ip), vehicle: water 86 % of control | [6] 103 % of control

Cc1ccc2nc(N/N=C/c3cccs3)sc2c1
inactive: [12] 100 % of control | dose: 100.0 mg/kg/injection, schedule: Q01DX009 (ip), vehicle: Klucel (hydroxypropylcellulose) (HPC) 101 % of control | dose: 200.0 mg/kg/injection, schedule: Q01DX009 (ip), vehicle: Klucel (hydroxypropylcellulose) (HPC) 94 % of control
